In article PMC5630639 (Scientific Reports, 2017):

Columns and labels:
[1] = test system: three cancer cell lines (MGC-803, MCF-7, A549); test: CCK-8 proliferation assay, three cancer cell lines together; format: cell-based; conditions: Homo sapiens, 48 h, read-out: IC50 values toward three cancer cell lines
Method: (§1) All synthesized β-lactam-azide derivatives were evaluated for their antiproliferative activity against three cancer cell lines (MGC-803, MCF-7, A549) using CCK-8 proliferation assay. The well-known anticancer drug CA-4P was used as a control[36],[37].
(§2) MGC-803 cell line was obtained from the Chinese Academy of Sciences (Shanghai, China). MCF-7 and A549 were from the National Cell Center, China. MGC-803 cells were cultured in DMEM culture medium (DMEM, Biological Industries, Kibbutz Beit Haemek, Israel). A549 and MCF-7 cells were cultured in 1640 medium (1640, Biological Industries, Kibbutz Beit Haemek, Israel). All medium were supplemented with 10% fetal bovine serum, 100 U/ml penicillin (North China Pharmaceutical group Co.), and 100 µg/ml streptomycin (North China Pharmaceutical group Co.). All cells were cultured at 37 °C in a humidified incubator containing 5% CO2.
Synthesized analogues used in the study were dissolved in 100% cell culture grade DMSO and the final concentration of DMSO as <0.1% for testing on cancer cell lines. […] The absorbance was measured using a microplate reader (BioTek Instrument, Inc. Vermont, USA) with a test wavelength of 450 nm. The absorbance levels were corrected against untreated control absorbance values. […]

MCF-7 cells = test: CCK-8 proliferation assay, MCF-7; format: cell-based, human; conditions: Homo sapiens, MCF7; 48 h, CCK-8, mean ± SD
Method: as §1, §2
(§3) Synthesized analogues used in the study were dissolved in 100% cell culture grade DMSO and the final concentration of DMSO as <0.1% for testing on cancer cell lines. Cytotoxicity assays were performed on the human gastric carcinoma cell line MGC-803, the human mammary carcinoma cell line MCF-7, the human lung carcinoma cell line A549. Cells (3500–5000/well) were seeded into 96-well plates in 100 µL of culture medium. The cells were treated in triplicate with a gradient concentration of testing compounds and incubated at 37 °C, 5% CO2 for 48 h. For all cell lines, CCK-8 assay was performed to measure cytotoxic effects. The absorbance was measured using a microplate reader (BioTek Instrument, Inc. Vermont, USA) with a test wavelength of 450 nm. The absorbance levels were corrected against untreated control absorbance values. All experiments were performed in triplicate and SPSS17.0 was used for data analysis to obtain IC50 values.

MGC-803 cells = test: CCK-8 proliferation assay, MGC-803; format: cell-based, human; conditions: Homo sapiens, MGC-803; 48 h, CCK-8, mean ± SD
Method: as §1, §2, §3

A549 cells = test: CCK-8 proliferation assay, A549; format: cell-based, human; conditions: Homo sapiens, A549; 48 h, CCK-8, mean ± SD
Method: as §1, §2, §3

tubulin [2] = test system: tubulin; parameters: method as in PMID 15588080; conditions: cited from earlier work
bladder cancer cells = test system: bladder cancer cells; parameters: method as in PMID 18281555; conditions: cited from earlier work
tubulin [3] = test system: tubulin; parameters: method as in PMID 11058036; conditions: read-out: anti-tubulin activity IC50; cited from earlier work

SMILES	IC50 (MCF-7 cells)	IC50 (MGC-803 cells)	IC50 (A549 cells)	melting point	also measured
CC(=O)OC1C(=O)C2(C)C(O)CC3OCC3(OC(C)=O)C2C(OC(=O)c2ccccc2)C2(O)CC(OC(=O)C(O)C(NC(=O)c3ccccc3)c3ccc(N=[N+]=[N-])cc3)C(C)=C1C2(C)C (stereo not drawn) [Compound 3, 3′-(4-Azidophenyl)-3′-dephenylpaclitaxel]	–	–	–	–	activity in tubulin assembly and cytotoxicity assays (tubulin [2]): as active as paclitaxel
COc1cccc(/C=C/C(=O)N=[N+]=[N-])c1OC [Compound 1]	–	–	–	–	in vitro and in vivo antitumor effect of romidepsin on bladder cancer cells (bladder cancer cells): enhanced
COc1cc(/C=C\c2cc(OC)c(OC)c(OC)c2)ccc1N=[N+]=[N-] [Compound 2]	–	–	–	–	IC50 (tubulin [3]): 5.2 µM

Second part, led by results:

IC50 (MCF-7 cells)	IC50 (MGC-803 cells)	IC50 (A549 cells)	melting point	SMILES	also measured
0.154 ± 0.019 µM	0.251 ± 0.053 µM	4.2 ± 0.186 µM	–	COc1cc(N2C(=O)[C@H](c3cccs3)[C@H]2c2ccc(N=[N+]=[N-])cc2)cc(OC)c1OC (relative stereo) [Compound 26, trans-4-(4-azidophenyl)-3-(thiophen-2-yl)-1-(3,4,5-trimethoxyphenyl)azetidin-2-one]	IC50 [1]: 0.154 to 4.2 µM
> 20 µM	> 20 µM	> 20 µM	90 to 91 °C	COc1ccc([C@@H]2C(=O)N(c3cc(OC)c(OC)c(OC)c3)[C@H]2c2ccc(-n3cc(-c4ccccc4)nn3)cc2)cc1 (relative stereo) [Compound 30, trans-3-(4-methoxyphenyl)-4-(4-(4-phenyl-1H-1,2,3-triazol-1-yl)phenyl)-1-(3,4,5-trimethoxyphenyl)azetidin-2-one]	–
> 20 µM	> 20 µM	> 20 µM	142 to 145 °C	COc1cc(N2C(=O)[C@@H](c3ccccc3)[C@@H]2c2ccc(-n3cc(COc4cccc([N+](=O)[O-])c4)nn3)cc2)cc(OC)c1OC (relative stereo) [Compound 29, trans-4-(4-(4-((3-nitrophenoxy)methyl)-1H-1,2,3-triazol-1-yl)phenyl)-3-phenyl-1-(3,4,5-trimethoxyphenyl)azetidin-2-one]	–
